Source: article PMC10866072, “Design, synthesis, molecular modelling and biological evaluation of novel 6-amino-5-cyano-2-thiopyrimidine derivatives as potent anticancer agents against leukemia and apoptotic inducers” (Journal of Enzyme Inhibition and Medicinal Chemistry, 2024)

Experiments:
[1] = test system: CCRF-CEM; type: cell-based; details: one dose 10^-5 M, 48 h
[2] = test system: HL-60(TB); type: cell-based; details: one dose 10^-5 M, 48 h
[3] = test system: K-562; type: cell-based; details: one dose 10^-5 M, 48 h
[4] = test system: MOLT-4; type: cell-based; details: one dose 10^-5 M, 48 h
[5] = test system: RPMI-8226; type: cell-based; details: one dose 10^-5 M, 48 h
[6] = test system: SR; type: cell-based; details: one dose 10^-5 M, 48 h
[7] = test system: A549/ATCC; type: cell-based; details: one dose 10^-5 M, 48 h
[8] = test system: EKVX; type: cell-based; details: one dose 10^-5 M, 48 h
[9] = test system: HOP-62; type: cell-based; details: one dose 10^-5 M, 48 h
[10] = test system: HOP-92; type: cell-based; details: one dose 10^-5 M, 48 h
[11] = test system: NCI-H226; type: cell-based; details: one dose 10^-5 M, 48 h
[12] = test system: NCI-H23; type: cell-based; details: one dose 10^-5 M, 48 h
[13] = test system: NCI-H460; type: cell-based; details: one dose 10^-5 M, 48 h
[14] = test system: NCI-H522; type: cell-based; details: one dose 10^-5 M, 48 h
[15] = test system: COLO 205; type: cell-based; details: one dose 10^-5 M, 48 h
[16] = test system: HCC-2998; type: cell-based; details: one dose 10^-5 M, 48 h
[17] = test system: HCT-116; type: cell-based; details: one dose 10^-5 M, 48 h
[18] = test system: HCT-15; type: cell-based; details: one dose 10^-5 M, 48 h
[19] = test system: HT29; type: cell-based; details: one dose 10^-5 M, 48 h
[20] = test system: KM12; type: cell-based; details: one dose 10^-5 M, 48 h
[21] = test system: SW-620; type: cell-based; details: one dose 10^-5 M, 48 h
[22] = test system: SF-268; type: cell-based; details: one dose 10^-5 M, 48 h
[23] = test system: SF-295; type: cell-based; details: one dose 10^-5 M, 48 h
[24] = test system: SF-539; type: cell-based; details: one dose 10^-5 M, 48 h
[25] = test system: SNB-19; type: cell-based; details: one dose 10^-5 M, 48 h
[26] = test system: U251; type: cell-based; details: one dose 10^-5 M, 48 h
[27] = test system: LOX IMVI; type: cell-based; details: one dose 10^-5 M, 48 h
[28] = test system: MALME-3M; type: cell-based; details: one dose 10^-5 M, 48 h
[29] = test system: M14; type: cell-based; details: one dose 10^-5 M, 48 h
[30] = test system: MDA-MB-435; type: cell-based; details: one dose 10^-5 M, 48 h
[31] = test system: SK-MEL-2; type: cell-based; details: one dose 10^-5 M, 48 h
[32] = test system: SK-MEL-28; type: cell-based; details: one dose 10^-5 M, 48 h
[33] = test system: SK-MEL-5; type: cell-based; details: one dose 10^-5 M, 48 h
[34] = test system: UACC-257; type: cell-based; details: one dose 10^-5 M, 48 h
[35] = test system: UACC-62; type: cell-based; details: one dose 10^-5 M, 48 h
[36] = test system: IGROV1; type: cell-based; details: one dose 10^-5 M, 48 h
[37] = test system: OVCAR-3; type: cell-based; details: one dose 10^-5 M, 48 h
[38] = test system: OVCAR-4; type: cell-based; details: one dose 10^-5 M, 48 h
[39] = test system: OVCAR-5; type: cell-based; details: one dose 10^-5 M, 48 h
[40] = test system: OVCAR-8; type: cell-based; details: one dose 10^-5 M, 48 h
[41] = test system: NCI/ADR-RES; type: cell-based; details: one dose 10^-5 M, 48 h
[42] = test system: SK-OV-3; type: cell-based; details: one dose 10^-5 M, 48 h
[43] = test system: 786-0; type: cell-based; details: one dose 10^-5 M, 48 h
[44] = test system: A498; type: cell-based; details: one dose 10^-5 M, 48 h
[45] = test system: ACHN; type: cell-based; details: one dose 10^-5 M, 48 h
[46] = test system: CAKI-1; type: cell-based; details: one dose 10^-5 M, 48 h
[47] = test system: RXF 393; type: cell-based; details: one dose 10^-5 M, 48 h
[48] = test system: SN12C; type: cell-based, human; details: one dose 10^-5 M, 48 h
[49] = test system: TK-10; type: cell-based; details: one dose 10^-5 M, 48 h
[50] = test system: UO-31; type: cell-based; details: one dose 10^-5 M, 48 h
[51] = test system: PC-3; type: cell-based; details: one dose 10^-5 M, 48 h
[52] = test system: DU-145; type: cell-based; details: one dose 10^-5 M, 48 h
[53] = test system: MCF7; type: cell-based; details: one dose 10^-5 M, 48 h
[54] = test system: MDA-MB-231/ATCC; type: cell-based; details: one dose 10^-5 M, 48 h
[55] = test system: HS 578T; type: cell-based; details: one dose 10^-5 M, 48 h; HS 578T
[56] = test system: BT-549; type: cell-based; details: one dose 10^-5 M, 48 h
[57] = test system: T-47D; type: cell-based; details: one dose 10^-5 M, 48 h
[58] = test system: MDA-MB-468; type: cell-based; details: one dose 10^-5 M, 48 h
[59] = test system: full NCI 60 cell lines panel

**Q.** Which results are given for “4-Amino-6–(2,4-dichlorophenyl)-2-mercaptopyrimidine-5-carboximidohydrazide [Compound 2c]”?
**A.** % growth [1]: 75.32%; % growth [2]: 57.91%; % growth [3]: 91.24%; % growth [4]: 94.43%; % growth [5]: 87.93%; % growth [6]: 69.30%; % growth [7]: 89.50%; % growth [8]: 83.88%; % growth [9]: 95.11%; % growth [10]: 71.67%; % growth [11]: 90.50%; % growth [12]: 95.68%; % growth [13]: 89.85%; % growth [14]: 68.80%; % growth [15]: 100.56%; % growth [16]: 108.77%; % growth [17]: 85.00%; % growth [18]: 92.01%; % growth [19]: 89.84%; % growth [20]: 100.35%; % growth [21]: 87.86%; % growth [22]: 104.49%; % growth [23]: 93.63%; % growth [24]: 85.28%; % growth [25]: 86.22%; % growth [26]: 103.26%; % growth [27]: 86.57%; % growth [28]: 94.17%; % growth [29]: 95.64%; % growth [30]: 96.41%; % growth [31]: 95.39%; % growth [32]: 109.76%; % growth [33]: 97.76%; % growth [34]: 102.94%; % growth [35]: 84.96%; % growth [36]: 104.68%; % growth [37]: 104.96%; % growth [38]: 82.22%; % growth [39]: 98.09%; % growth [40]: 94.00%; % growth [41]: 103.23%; % growth [42]: 94.00%; % growth [43]: 90.40%; % growth [44]: 105.32%; % growth [45]: 76.09%; % growth [46]: 83.79%; % growth [47]: 94.62%; % growth [48]: 91.26%; % growth [49]: 111.85%; % growth [50]: 71.44%; % growth [51]: 77.58%; % growth [52]: 107.65%; % growth [53]: 79.62%; % growth [54]: 77.09%; % growth [55]: 99.16%; % growth [56]: 81.84%; % growth [57]: 73.88%; % growth [58]: 90.16%; activity on all 60 cancer cell lines tested (in words) ([59]; one dose): weak activity; Mean % growth ([59]; one dose 10^-5 M, 48 h, mean over all cell lines): 90.71%
